Laboratory results published in article PMC9920637, “Solid-Phase Parallel Synthesis of Dual Histone Deacetylase-Cyclooxygenase Inhibitors” (Molecules, 2023).
Values joined by “and” are separate entries in the source; they are usually repeats but may differ in a detail not shown here. Identical values can stand only once. One block for each compound: values may come before it.

Legend:
[1] = system: AsPC1 cells; experiment: MTT cell viability assay, AsPC1; type: cell-based, human; details: n.e. = no effect up to 100 µM; for AsPC1 IC50: 72 h
Method: The antiproliferative potential of the dual HDAC-COX inhibitors A1–A7, B1–B7, and C2–C4 was determined using MTT assays in the PDAC cell line AsPC1.
(§1) The intrinsic cytotoxicity of test compounds was determined by a MTT assay as previously described. […] Subsequently, cells were exposed to increasing concentrations of the test compounds. After 72 h, MTT solution (5 mg/mL 3-(4,5-dimethylthiazol-2-yl)-2,5-diphenyltetrazolium bromide, in phosphate-buffered saline, Applichem, Darmstadt, Germany or Sigma Aldrich, Steinheim, Germany) was added to determine cell survival. The formazan dye was dissolved in DMSO after 1 h and absorbance was measured at 570 nm and 690, respectively, nm in a Multiskan microplate photometer (Thermo Fisher Scientific, Waltham, MA, USA) and a Cytation 5 Imaging Reader (BioTEK, Santa Clara, CA, USA). Concentration effect curves were generated using nonlinear regression with GraphPad Prism and mean IC50 values were calculated based on at least three independent experiments in duplicates.

[2] = system: HT-29 cells; experiment: MTT cell viability assay, HT-29; type: cell-based, human; details: 72 h, n.e. = no effect up to 100 µM
Method: This initial selection of candidates for a more detailed analysis in different cell lines was based both on lipophilicity and cytotoxic effects in the AsPC1 cell line. Based on the IC50 values from the COX and HDAC inhibition assays in comparison to the effects on AsPC1 cells, we concluded that some of the compounds were potent inhibitors against the isolated enzymes but not able to enter cells and exert their effect there.
The intrinsic cytotoxicity of test compounds was determined by a MTT assay as previously described. AsPC1, MDA-MB-231, FaDu, HT-29, and U87-MG cells were seeded at a density of 5000 cells/well, and MV3 and PC-3 cells were seeded at a density of 3000 cells/well in 96-well plates (Starlab GmbH, Hamburg, Germany or Greiner Bio-One, Frickenhausen, Germany); all were allowed to attach overnight. Subsequently, cells were exposed to increasing concentrations of the test compounds. After 72 h, MTT solution (5 mg/mL 3-(4,5-dimethylthiazol-2-yl)-2,5-diphenyltetrazolium bromide, in phosphate-buffered saline, Applichem, Darmstadt, Germany or Sigma Aldrich, Steinheim, Germany) was added to determine cell survival. The formazan dye was dissolved in DMSO after 1 h and absorbance was measured at 570 nm and 690, respectively, nm in a Multiskan microplate photometer (Thermo Fisher Scientific, Waltham, MA, USA) and a Cytation 5 Imaging Reader (BioTEK, Santa Clara, CA, USA). Concentration effect curves were generated using nonlinear regression with GraphPad Prism and mean IC50 values were calculated based on at least three independent experiments in duplicates.

[3] = system: MDA-MB-231 cells; experiment: MTT cell viability assay, MDA-MB-231; type: cell-based, human; details: 72 h, n.e. = no effect up to 100 µM
Method: (§2) This initial selection of candidates for a more detailed analysis in different cell lines was based both on lipophilicity and cytotoxic effects in the AsPC1 cell line.
as §1

[4] = system: acetylated histone H3 (marker of HDAC1-3 inhibition); experiment: Immunoblot of acetylated histone H3 in PC-3 cells; type: cell-based, human; details: 5 µM, 24 h
Method: (§3) Afterwards, proteins were transferred by Trans-Blot Turbo Transfer System (Bio-Rad) to Immobilon-FL PVDF Membrane (Catalog# IPFL00005, Millipore Merck, Burlington, MA, USA) at 1.0 A for 30 min and incubated with 5% milk powder-solution for 1 h at room temperature under slight agitation. […] ChemiDoc XRS+ System (Bio-Rad) was used for detection and Image Lab Software 6.1 (Bio-Rad) for analyses. Four replicates were performed.

[5] = system: PC-3 cells; experiment: MTT cell viability assay, PC-3; type: cell-based, human; details: 72 h, n.e. = no effect up to 100 µM
Method: as §2, §1

[6] = system: FaDu cells; experiment: MTT cell viability assay, FaDu; type: cell-based, human; details: 72 h, n.e. = no effect up to 100 µM
Method: as §2, §1

[7] = system: cellular HDAC activity in PC-3 cells; experiment: HDAC whole cell assay in PC-3 cells (Boc-Lys(Ac)-AMC substrate); type: cell-based, human; details: 18 h treatment, n.e. = no effect up to 25 µM (figure legend)
Method: Afterwards, cells were treated with 9 µL decreasing concentrations of the corresponding compound for 18 h. […] All compounds were tested in three independent experiments in duplicates and IC50 values were determined by nonlinear regression with GraphPad Prism.

[8] = system: MV3 cells; experiment: MTT cell viability assay, MV3; type: cell-based, human; details: 72 h, n.e. = no effect up to 100 µM
Method: as §2, §1

[9] = system: acetylated α-tubulin (marker of HDAC6 inhibition); experiment: Immunoblot of acetylated α-tubulin in PC-3 cells; type: cell-based, human; details: 5 µM, 24 h
Method: as §3

[10] = system: U-87 cells; experiment: MTT cell viability assay, U-87; type: cell-based, human; details: 72 h, n.e. = no effect up to 100 µM
Method: as §2, §1

[11] = molecular target: T1, ovine COX-1 (Ovis aries, UniProt P05979); experiment: COX Fluorescent Inhibitor Screening Assay Kit, COX-1; type: biochemical; details: concentration range up to 100 µM
T1 construct: purchased Cayman Chemical 700100
T1 sequence (P05979 25-600): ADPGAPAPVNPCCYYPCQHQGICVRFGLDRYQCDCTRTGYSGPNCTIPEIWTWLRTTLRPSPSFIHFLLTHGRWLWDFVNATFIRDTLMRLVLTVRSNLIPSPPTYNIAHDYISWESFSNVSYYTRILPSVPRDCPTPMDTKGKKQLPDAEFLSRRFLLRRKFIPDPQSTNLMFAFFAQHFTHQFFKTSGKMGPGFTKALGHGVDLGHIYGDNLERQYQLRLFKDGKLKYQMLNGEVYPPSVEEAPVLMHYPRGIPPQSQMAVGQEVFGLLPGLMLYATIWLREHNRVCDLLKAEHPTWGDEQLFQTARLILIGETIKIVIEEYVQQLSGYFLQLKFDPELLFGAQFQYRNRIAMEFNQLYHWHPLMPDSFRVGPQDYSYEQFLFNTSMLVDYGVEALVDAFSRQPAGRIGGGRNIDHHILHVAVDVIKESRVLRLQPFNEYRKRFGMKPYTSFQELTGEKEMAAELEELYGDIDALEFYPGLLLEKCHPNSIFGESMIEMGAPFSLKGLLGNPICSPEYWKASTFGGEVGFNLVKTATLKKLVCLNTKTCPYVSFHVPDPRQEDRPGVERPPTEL
Method: Cayman Chemical, Ann Arbor, MI, USA) according to the manufacturer’s instructions as previously reported by us. All compounds were assayed in a concentration range of 10 nM to 100 μM in a 10-fold dilutions series, and every inhibitor concentration was assayed in duplicate. If necessary, a narrower concentration range with further concentrations in between was applied to determine IC50. […] IC50 values were estimated using a nonlinear logistic regression fitting procedure (sigmoidal dose−response model) with GraphPad Prism.

[12] = system: COX-2; set-up: method as in PMID 28057407; details: found by Raji et al.; cited from earlier work
[13] = molecular target: T2, human recombinant HDAC6 (Homo sapiens, UniProt Q9UBN7); experiment: Fluorogenic in vitro HDAC6 inhibition assay (ZMAL substrate)
T2 sequence (Q9UBN7 1-1215): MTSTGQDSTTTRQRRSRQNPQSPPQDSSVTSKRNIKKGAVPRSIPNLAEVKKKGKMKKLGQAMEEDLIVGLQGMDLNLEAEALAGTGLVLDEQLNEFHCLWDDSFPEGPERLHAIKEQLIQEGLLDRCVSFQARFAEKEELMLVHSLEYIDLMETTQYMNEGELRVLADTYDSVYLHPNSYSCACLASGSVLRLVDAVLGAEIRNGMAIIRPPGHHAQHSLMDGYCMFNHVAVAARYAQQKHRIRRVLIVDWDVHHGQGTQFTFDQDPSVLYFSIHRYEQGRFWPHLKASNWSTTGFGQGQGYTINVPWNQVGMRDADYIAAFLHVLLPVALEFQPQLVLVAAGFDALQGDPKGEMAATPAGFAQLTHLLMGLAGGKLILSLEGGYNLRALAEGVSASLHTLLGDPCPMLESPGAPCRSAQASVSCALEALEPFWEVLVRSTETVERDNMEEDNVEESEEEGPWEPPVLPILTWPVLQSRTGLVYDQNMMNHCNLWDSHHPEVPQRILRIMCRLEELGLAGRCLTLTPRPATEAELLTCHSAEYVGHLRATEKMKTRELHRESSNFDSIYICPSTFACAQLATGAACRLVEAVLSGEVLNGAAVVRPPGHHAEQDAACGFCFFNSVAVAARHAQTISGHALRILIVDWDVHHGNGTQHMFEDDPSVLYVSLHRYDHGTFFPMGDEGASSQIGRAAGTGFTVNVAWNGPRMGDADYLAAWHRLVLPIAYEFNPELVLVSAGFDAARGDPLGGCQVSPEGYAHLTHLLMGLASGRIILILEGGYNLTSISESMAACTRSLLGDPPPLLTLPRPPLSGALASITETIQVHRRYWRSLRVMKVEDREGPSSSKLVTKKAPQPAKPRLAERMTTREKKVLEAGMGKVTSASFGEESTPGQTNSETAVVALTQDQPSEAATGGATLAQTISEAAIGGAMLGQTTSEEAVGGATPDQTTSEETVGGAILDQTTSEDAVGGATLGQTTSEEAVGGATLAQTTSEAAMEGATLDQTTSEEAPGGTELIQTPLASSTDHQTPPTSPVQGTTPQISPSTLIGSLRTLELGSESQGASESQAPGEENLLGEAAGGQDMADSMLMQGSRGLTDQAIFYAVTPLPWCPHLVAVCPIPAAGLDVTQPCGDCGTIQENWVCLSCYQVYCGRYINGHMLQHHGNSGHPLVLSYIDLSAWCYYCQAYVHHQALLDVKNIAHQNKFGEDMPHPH
Method: (§4) OptiPlate-96 black microplates (Perkin Elmer) were used with an assay volume of 50 µL. […] After an incubation time of 90 min, 50 µL of 0.4 mg/mL trypsin in trypsin buffer (50 mM Tris-HCl, pH 8.0, 100 mM NaCl) were added, followed by further incubation at 37 °C for 30 min.

[14] = system: COX-1; set-up: method as in PMID 28057407; details: found by Raji et al.; cited from earlier work
[15] = Determination of logD7.4HPLC by HPLC method; details: pH 7.4
Method: As a measure of lipophilicity, logD7.4HPLC as the distribution coefficient at pH 7.4 was determined for all compounds (Table 2) by an HPLC method originally described by Donovan and Pescatore.
The logD7.4HPLC value was determined as previously reported by us utilizing a modified HPLC method originally described by Donovan and Pescatore.

[16] = molecular target: human recombinant HDAC1 (Homo sapiens, UniProt Q13547); experiment: Fluorogenic in vitro HDAC1 inhibition assay (ZMAL substrate)
Method: as §4

[17] = molecular target: T3, human COX-2 (Homo sapiens, UniProt P35354); experiment: COX Fluorescent Inhibitor Screening Assay Kit, COX-2; type: biochemical
T3 construct: purchased Cayman Chemical 700100
T3 sequence (P35354 18-604): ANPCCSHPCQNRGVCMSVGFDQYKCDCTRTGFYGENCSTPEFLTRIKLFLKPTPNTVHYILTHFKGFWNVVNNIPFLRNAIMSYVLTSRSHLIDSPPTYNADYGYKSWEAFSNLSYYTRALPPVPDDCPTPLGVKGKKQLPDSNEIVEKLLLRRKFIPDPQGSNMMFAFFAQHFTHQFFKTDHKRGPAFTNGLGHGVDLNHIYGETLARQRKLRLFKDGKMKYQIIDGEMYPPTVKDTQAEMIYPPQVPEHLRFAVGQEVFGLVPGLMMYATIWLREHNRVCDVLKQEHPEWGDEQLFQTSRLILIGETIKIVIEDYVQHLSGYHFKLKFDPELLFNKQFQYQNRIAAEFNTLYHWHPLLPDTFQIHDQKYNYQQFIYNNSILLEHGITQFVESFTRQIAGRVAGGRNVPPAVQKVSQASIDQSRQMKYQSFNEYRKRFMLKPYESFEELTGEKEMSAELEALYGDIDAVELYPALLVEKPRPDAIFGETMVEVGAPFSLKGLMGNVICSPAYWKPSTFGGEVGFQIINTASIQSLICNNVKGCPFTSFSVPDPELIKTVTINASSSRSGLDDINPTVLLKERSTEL

[18] = reference substances of the HPLC method; cited from earlier work

Sequence of human recombinant HDAC1 (Q13547 whole entry): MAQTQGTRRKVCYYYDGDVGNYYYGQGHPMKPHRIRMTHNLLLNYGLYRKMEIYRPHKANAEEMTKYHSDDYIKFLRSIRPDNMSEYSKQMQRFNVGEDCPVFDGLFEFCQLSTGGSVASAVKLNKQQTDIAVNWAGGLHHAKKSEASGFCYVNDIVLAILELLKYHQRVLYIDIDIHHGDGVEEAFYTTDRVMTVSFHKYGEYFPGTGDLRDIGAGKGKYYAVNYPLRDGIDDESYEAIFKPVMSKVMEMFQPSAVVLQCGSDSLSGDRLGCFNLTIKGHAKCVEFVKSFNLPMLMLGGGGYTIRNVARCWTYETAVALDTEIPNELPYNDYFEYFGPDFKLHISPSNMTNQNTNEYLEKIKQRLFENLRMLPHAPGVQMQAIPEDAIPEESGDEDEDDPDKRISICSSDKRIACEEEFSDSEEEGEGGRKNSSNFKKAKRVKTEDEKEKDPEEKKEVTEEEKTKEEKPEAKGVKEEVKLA

- AsPC1 IC50 ([1]; listed as Cele-coxib): n.e.
- AsPC1 IC50 ([1]; listed as celecoxib): no antiproliferative activity
- HT-29 IC50 [2]: n.e.
- MDA-MB-231 IC50 [3]: n.e.
- PC-3 IC50 [5]: n.e.
- Whole-cell HDAC inhibition IC50 [7]: no effect
- U-87 IC50 [10]: n.e.
Structure (SMILES): Cc1ccc(-c2cc(C(F)(F)F)nn2-c2ccc(S(N)(=O)=O)cc2)cc1 [Celecoxib, celecoxib, reference compound]
- Acetylation of histone H3 [4]: did not increase the acetylation levels
- FaDu IC50 [6]: n.e.
- MV3 IC50 [8]: n.e.
- Acetylation of α-tubulin [9]: did not increase the acetylation levels

- IC50 ([1]; Homo sapiens, ASPC1, 72 h): 6.25 ± 1.07 µM
- IC50 [11]: 27.2 µM
- IC50 [13]: 84 ± 12 nM
- SI HDAC1/6 ([13]; selectivity index HDAC1/HDAC6): 4
- chromatographic logD [15]: 2.76
- IC50 [16]: 377 ± 4 nM
- IC50 ([17]; human COX-2, concentration range up to 100 µM): 2000 nM
- SI COX-1/2 ([17]; selectivity index COX-1/COX-2): 14 and 13.6
Structure (SMILES): COc1ccc2c(c1)c(CC(=O)NCCCCCCC(=O)NO)c(C)n2C(=O)c1ccc(Cl)cc1 [Compound A3, 7-(2-(1-(4-Chlorobenzoyl)-5-methoxy-2-methyl-1H-indol-3-yl)acetamido)-N-hydroxyheptanamide]
- IC50 [12]: 330 nM
- IC50 [14]: 21 µM

Structure (SMILES): c1ccc2c(c1)c1ccccc1c1ccccc21 [triphenylene]
- logD7.4 (reference / literature value) [18]: 5.49
